Experimental data taken from patent EP0607129B1, “METHYLPIPERAZINOAZEPINE DERIVATIVES, THEIR PREPARATION AND USE” ("THERABEL RESEARCH SA/NV", priority 1991, dated 1993).

Key:
récepteurs muscariniques = system: récepteurs muscariniques; set-up: species or system rat CFY; details: 1,5 nM (³H) QNB; rat brain homogenate without cerebellum; 25°C, 60 minutes; non-specific binding with atropine 10⁻⁵M; test concentration not given
[1] = Catalepsy test (extrapyramidal side effects); format: in vivo; details: for léger / faible effet cataleptique à partir de: dose from which a slight (léger, faible) cataleptic effect is seen; for catalepsie pour des doses supérieures à: dose above which catalepsy is seen
From the text: Voir notamment GRAY W.D., OSTERBERG A.C., RAUH C.E., Arch. Int. Pharmacodyn. 134, 198, 1961 et COSTALL B., OLLEY J.E., Neuropharmacology 10, 297, 1971.
Ce test est représentatif des effets extrapyramidaux présents dans de nombreux neuroleptiques (effet secondaire non souhaitable). Les composés de l'invention provoquent très peu de catalepsie et paraissent donc dénués de cet effet secondaire non souhaitable.

apomorphine = assay: In vivo apomorphine antagonism test
[2] = graded + to +++++, 20 mg/kg for the compounds

In the case of `CN1CCN(C2=Nc3ccccc3Sc3ccc(Cl)cc32)CC1` [Clothiapine, reference compound], the “Inhibition, % (binding de ³H QNB)” value (récepteurs muscariniques) is reported as 38,05%.

For `CN1CCN(C2=Nc3cc(Cl)ccc3Nc3ccccc32)CC1` [Clozapine, reference compound], the “léger / faible effet cataleptique à partir de” value [1] was no less than 20 mg/kg and the “Test d'antagonisme a l'apomorphine: intensité de l'activité” value (shortened to “Test d'antagonisme a l'apomorphine”) (apomorphine; clozapine at 20 mg/g (so in the source)) was “+”.

With `CN1CCN(C2=Nc3ccccc3Nc3ccncc32)CC1` [Exemple 1, 11-(4-méthylpipérazin-1-yl)-5H-pyrido(4,3-b)benzo-1,5-diazépine] the “Inhibition, % (binding de ³H QNB)” value (récepteurs muscariniques) was 4,48% and the “catalepsie pour des doses supérieures à” value [1] was greater than 40 mg/kg.

With `CN1CCN(C2=Nc3cccnc3Sc3ccc(Cl)cc32)CC1.O=C(O)/C=C/C(=O)O` [Exemple 3, Fumaratede 8-chloro-6-(4-méthylpipérazin-1-yl)pyrido(2,3-b)benzo-1,4-thiazépine] the “catalepsie pour des doses supérieures à” value [1] was greater than 40 mg/kg.

For `CN1CCN(C2=Nc3ccccc3Oc3ncccc32)CC1.O=C(O)/C=C\C(=O)O` [Exemple 4, Maléatede 5-(4-méthylpipérazin-1-yl)pyrido(2,3-b)benzo-1,5-oxazépine], the “léger / faible effet cataleptique à partir de” value [1] was no less than 20 mg/kg.

In the case of `CN1CCN(C2=Nc3cc(Cl)ccc3Oc3ncccc32)CC1.O=C(O)/C=C/C(=O)O` [Exemple 5, Fumaratede 8-chloro-5-(4-méthylpipérazin-1-yl)pyrido(2,3-b)benzo-1,5-oxazépine], the “Test d'antagonisme a l'apomorphine” value (apomorphine; [2]) is reported as “+”.

With `CN1CCN(C2=Nc3cccnc3Oc3ccccc32)CC1.O=C(O)/C=C/C(=O)O` [Exemple 7, Fumaratede 6-(4-méthylpipérazin-1-yl)pyrido(2,3-b)benzo-1,4-oxazépine] the “Test d'antagonisme a l'apomorphine” value (apomorphine; [2]) was “+”.

In the case of `CN1CCN(C2=Nc3cccnc3Nc3ccc(Cl)cc32)CC1` [Exemple 10, 8-chloro-6-(4-méthylpipérazin-1-yl)-11H-pyrido(2,3-b)benzo-1,4-diazépine], the “Inhibition, % (binding de ³H QNB)” value (récepteurs muscariniques) is reported as 62,08%.

With `Cc1ccc2c(c1)C(N1CCN(C)CC1)=Nc1cccnc1N2` [Exemple 11, 6-(4-méthylpipérazin-1-yl)-8-méthyl-11H-pyrido(2,3-b)benzo-1,4-diazépine] the “Inhibition, % (binding de ³H QNB)” value (récepteurs muscariniques) was 67,3%.

With `CN1CCN(C2=Nc3cccnc3Nc3cc(Cl)ccc32)CC1` [Exemple 12, 9-chloro-6-(4-méthylpipérazin-1-yl)-11H-pyrido(2,3-b)benzo-1,4-diazépine] the “Test d'antagonisme a l'apomorphine” value (apomorphine; [2]) was “+”.

For `CN1CCN(C2=Nc3cccnc3Nc3ccc(F)cc32)CC1` [Exemple 13, 8-fluoro-6-(4-méthylpipérazin-1-yl)-11H-pyrido(2,3-b)benzo-1,4-diazépine], the “Test d'antagonisme a l'apomorphine” value (apomorphine; [2]) was “+”.

For `CN1CCN(C2=Nc3cccnc3N(C=O)c3ccccc32)CC1` [Exemple 17, 11-formyl-6-(4-méthylpipérazin-1-yl)-11H-pyrido(2,3-b)benzo-1,4-diazépine], the “Inhibition, % (binding de ³H QNB)” value (récepteurs muscariniques) was 43,38%.

In the case of `CN1CCN(C2=Nc3cnccc3Sc3ccccc32)CC1` [Exemple 18, 10-(4-méthylpipérazin-1-yl)pyrido(4,3-b)benzo-1,4-thiazépine], the “Inhibition, % (binding de ³H QNB)” value (récepteurs muscariniques) is reported as 57,61%.

In the case of `O=C(CCCN1CCC(O)(c2ccc(Cl)cc2)CC1)c1ccc(F)cc1` [Halopéridol, reference compound], the “Test d'antagonisme a l'apomorphine” value (apomorphine; halopéridol at 0,63 mg/kg) is reported as “+++++”.
